In patent US20250368958A1, “CAR-EXPRESSING PLURIPOTENT STEM CELL-DERIVED NEUTROPHILS LOADED WITH DRUG NANOPARTICLES AND USES THEREOF” (Purdue Research Foundation, priority 2022, published 2025):

Assays:
[1] = test system: tumor-neutrophil co-culture; test: Tumor lysis with phagocytosis or ROS inhibitor; type: cell-based
Procedure: FIG. 16A is a volcano map of bulk RNA-Seq analysis of U87MG cells under indicated treatments. FIGS. 16B and 16C show tumor lysis measurements of the indicated groups treated with 5 μM cytochalasin D (CytoD) or 5 mM N-acetylcysteine (NAC), respectively.
RNA sequencing (RNA-seq) analysis on tumor cells was performed to elucidate potential molecular mechanism underlying enhanced anti-tumor cytolysis of neutrophils by CAR expression and R—SiO2-TPZ NP. […] To further understand enhanced anti-tumor activities of R—SiO2-TPZ-loaded CAR-neutrophils, a phagocytosis inhibitor cytochalasin D and a reactive oxygen species (ROS) inhibitor N-acetyl-cysteine (NAC) were applied to the tumor-neutrophil co-culture.

U87MG tumor spheroids = test: 3D tumor spheroid model; type: cell-based, human; details: drug delivered by CAR-neutrophils@R—SiO2 NPs
Procedure: A three-dimensional (3D) tumor spheroid model was then employed to evaluate the tumor-penetration ability of R—SiO2-TPZ NP-loaded CAR-neutrophils (FIG. 6G). 3D tumor spheroids were generated by the hanging-drop method. Briefly, U87MG cells were suspended in minimum essential medium (MEM) medium with 10% FBS and 0.3% methylcellulose at 2×10^6 cells/mL and deposited onto an inverted lid of 96-well plate as an individual drop using a 20 μL pipettor. The cover lid was then placed back onto the PBS-filled bottom chamber, and the whole plate was incubated at 37° C. and 5% CO2. The hanging drops were monitored daily until cell aggregates were formed in 5-7 days. Each cell aggregate was transferred to a single well of a 24-well plate for subsequent experiments.
To assess the tumor penetration capability of CLTX-CAR neutrophils, 2×10^5 neutrophils/well were added to the wells of 24-well plate and incubated with tumor spheroids. After co-incubation for 24 hours, tumor spheroids were fixed and stained for CD45 and DAPI. For cytotoxicity analysis, both live/dead cell staining and the CytoTox-Glo™ Cytotoxicity Assay kit (Promega Corporation, Madison, WI) were employed. The CytoTox-Glo™ Cytotoxicity Assay was quantified by the SpectraMax iD3 microplate reader (Molecular Devices, Sunnyvale, CA).

Q: Which “cytolysis of tumor cells by CAR-neutrophils in presence of inhibitor” value ([1]; 5 μM) does the source give for `C=C1[C@@H](C)[C@H]2[C@H](Cc3ccccc3)NC(=O)[C@]23[C@H](OC(C)=O)/C=C/[C@@](C)(O)C(=O)[C@@H](C)C/C=C/[C@H]3[C@@H]1O` [cytochalasin D] here?
A: significantly reduced

Q: For `Nc1nc2cc(CC[C@H]3C[C@@H](n4ccc5c(N)ncnc54)[C@H](O)[C@@H]3O)ccc2cc1Br` [JNJ64619187], which “killing of GBM cells in 3D tumor models” value (U87MG tumor spheroids) is on record?
A: efficiently kill GBM cells

Q: How did the “cytolysis of tumor cells by CAR-neutrophils in presence of inhibitor” value ([1]; 5 mM) turn out when `CC(=O)N[C@@H](CS)C(=O)O` [NAC, N-acetyl-cysteine] was run?
A: significantly reduced
